In patent US9642895B2, “Peptides for enhancing transdermal delivery” (3M INNOVATIVE PROPERTIES COMPANY, priority 2013, dated 2017):

Columns and labels:
human cadaver skin [1] = test: Phage display library selection for skin penetration using tape stripping; type: in vitro ADME; details: phage-displayed peptide; phages recovered from tape strips 21-24 and remaining skin after 4 rounds of selection; 57 plaques sequenced
Protocol: (§1) Human cadaver skin was stored frozen. Prior to using, the frozen sections were placed in PBS and warmed to room temperature. The phage libraries or synthesized peptide sequences were applied to the stratum corneum side of the skin sample.
A tube containing LB medium (2 mL) and tetracycline (at a concentration of 20 μg/mL) was inoculated with E. coli ER2738 cells and then incubated overnight at 37° C. with shaking (200 rpm). An aliquot (100 microliter) was added to 20 mL of fresh LB medium containing 20 μg/mL of tetracycline. The culture was incubated at 37° C. with shaking (200 rpm) of the flask and the cells were grown to the early-log phase (OD600=0.5). Next, the phage sample was added and the culture was maintained for 4 hours at 37° C. with shaking of the flask.
E. coli ER2738 cells were removed from the phage amplified culture sample by centrifugation at 8000 rpm for 10 minutes. The resulting supernatant solution was added to the PEG/NaCl Phage precipitating solution (at a concentration of […]) and then maintained at 4° C. for 2 hours. The resulting phage precipitate was recovered by centrifuging the sample (8000 rpm for 30 min), removing the supernatant, and re-suspending the phage pellet in 2 mL of Tris-buffered saline (Tris buffered saline reagent prepared as 50 mM Tris-HCl in 150 mM NaCl buffered saline, pH 7.5). The amplified phage product was stored at 4° C.
LB Broth Medium (5-10 mL) was inoculated with a single colony of E. coli ER2738 and incubated with shaking (200 rpm) at 37° C. until the cells reached the early-log growth phase (OD600=0.5). The culture medium was then dispensed into multiple microfuge tubes (200 microliters per microfuge tube with one tube prepared for each phage dilution). Ten fold serial dilutions of amplified phage product in LB broth medium were prepared and a 10 microliter aliquot from each dilution was added to a separate microfuge tube containing culture medium. Each tube was vortexed and incubated at room temperature for 1-5 minutes.
The contents of each microfuge tube were transferred to a corresponding culture tube containing 3mL of soft agar maintained at 45° C. Each culture tube was then vortexed and the soft agar was poured onto a corresponding pre-warmed (37° C.) LB/IPTG/X-gal\tetraycline Petri plate. The resulting plates were gently tilted and rotated in order to evenly spread the soft agar on the plates. The plates were cooled for five minutes, inverted, and then incubated overnight at 37° C. Plates having approximately 100 plaques were counted providing an adjustment for the dilution factor. Single plaque phages on the plates were selected and further processed for DNA sequencing.
(§2) E. coli ER2738 cell culture (800 microliters of an early-log phase prepared as described above) was added to each well of a 96 deep well plate (each well having a 2 mL volume). Single plaque phages were randomly selected from Petri plates prepared as described in the phage titration procedure. A sterilized toothpick was used to remove a plaque from the Petri plate and transfer it to a well in the 96 well plate. The infected E. coli ER2738 cells were incubated for 4 hours at 37° C. with shaking (300 rpm). The liquid cultures were then centrifuged (4000 rpm for 60 min at 4° C.) and an aliquot of the resulting phage supernatant (10 microliters) from each well was sequenced for DNA using the rolling circle amplification method. The DNA sequencing was conducted at MCLAB (South San Francisco, Calif.).
Each phage display library (200 microliters in PBS) was applied to a 1 cm^2 section of human cadaver skin using a PIPETMAN Classic pipet (Gilson Inc., Middleton, Wis.). Adhesive tape was used to form a square frame that defined the application site. After 1 hour, the application site was washed with PBS to remove phages remaining on the skin surface. Tape stripping of the skin sample was accomplished using Scotch® box tape (3M Company, Maplewood, Minn.). […]

Hairless guinea pigs = test: Phage display library selection for skin penetration, in vivo hairless guinea pig procedure; details: phage-displayed peptide; phages recovered from blood 1 hour after loading on back skin; 48 plaques sequenced
Protocol: as §2
Hairless guinea pigs (200 gram females from Charles River Laboratory, Wilmington, Mass.) were anesthetized in a chamber using 3-5% isoflurane in oxygen or air, and maintained at 1.5-3% isoflurane with a co-axial breathing device (COAX-3 obtained from Viking Medical, Medford Lakes, N.J.). Each animal was placed in lateral recumbency on a thermostatically controlled surface with its nose and mouth inside the anesthetic face mask for the duration of the experiment. During the procedure, the animal was monitored for respiration rate and the level of anesthesia was adjusted as required. The section of the back used for loading a phage library was wiped with a 70% isopropanol in water solution.
A phage display library containing about 10^11 phage particles in 200 microliters of PBS was loaded onto a 1 cm^2 section of skin on the back of the animal using a PIPETMAN Classic pipet. In order to both control the humidity and reduce contamination at the application site, a Hill Top Chamber® (Hill Top Research, St. Petersburg, Fla.) was placed over the application site and attached with adhesive. After 1 hour, 10 mL of blood was bled from the heart. The blood was immediately transferred to a vial containing heparin (1000 USP units per mL). The sample of blood (10 mL) was mixed with 50 mL of E. coli ER2738 cells in LB broth medium (early log phase, OD600=0.5) and then added to 300 mL of soft agar. Equal portions of soft agar containing blood and ER2738 (about 7 mL per plate) were added to fifty LB/IPTG/X-gal/tetracycline Petri plates. The plates were incubated overnight at 37° C. The resulting single plaque phages were randomly picked from the agar plate and processed for phage DNA sequencing using the procedure described above. DNA sequences were successfully obtained from 48 of the 96 isolated phage plaques.

human cadaver skin [2] = test: In vitro skin penetration enhancement of GFP, tape stripping; type: in vitro ADME; details: 0.1 mg peptide with GFP 2.55 mg/mL in PBS; 2 hours at room temperature; 20 tape strips; control without peptide reached tape strip 6
Protocol: as §1
An in vitro assay to test for skin penetration enhancement was conducted using human cadaver skin. Two test samples (A and B) and a control sample were prepared. Test sample A contained GFP (at a concentration of 2.55 mg/mL), 0.1 mg of the peptide ACLDNTFRAC (Sequence ID No: 6, Table 2), and PBS (50 microliters). Test sample B contained GFP (at a concentration of 2.55 mg/mL), 0.1 mg of the peptide SHSACLDNTFRACGGGS (Sequence ID No: 14, Table 3), and PBS (50 microliters). The control sample contained GFP (at a concentration of 2.55 mg/mL) and PBS (100 microliters). Each sample was applied to a separate 1 cm^2 section of human cadaver skin using a PIPETMAN classic pipet. Adhesive tape was used to form a square frame that defined each application site. The treated skin samples were covered, maintained at room temperature for 2 hours, and then washed with deionized water for 5 minutes to remove any GFP remaining on the skin surface. Tape stripping of each skin application site was accomplished using Scotch® box tape. […]

hairless guinea pig skin [3] = test: In vitro skin penetration enhancement of FITC, tape stripping; type: in vitro ADME; details: peptide 1 mg/mL with FITC sodium salt 10 mg/mL in PBS; 1 hour at room temperature; UV 340 nm; spot indicates penetration of FITC to the 20th tape strip
Protocol: An in vitro assay to test for skin penetration enhancement was conducted using hairless guinea pig skin. A full skin sample from the back region of the animal was used. An individual test sample for each peptide in Table 3 was prepared containing the peptide (at a concentration of 1 mg/mL), FITC sodium salt (at a concentration of 10 mg/mL), and PBS (200 microliters). The control sample was prepared containing only FITC sodium salt (at a concentration of 10 mg/mL), and PBS (200 microliters). Each peptide test sample was applied to a separate 1 cm^2 section on the stratum corneum side of the guinea pig skin using a PIPETMAN Classic pipet. In the same manner, the control sample was applied. The treated skin samples were covered, maintained at room temperature for 1 hour and then washed with deionized water for 5 minutes to remove any FITC remaining on the skin surface. Tape stripping of each skin application site was accomplished using Scotch® box tape. The tape was placed on the skin so that it covered the entire surface of an individual application site (width of tape strip approximately 1.5 cm). For each tape stripping procedure, the tape was secured to the skin with three cycles (3 forward and 3 backward passes) of a 300 g hand held roller. Next the tape was grasped by hand at one end and quickly peeled from the skin surface using a single motion. The exact same procedure of tape stripping was repeated for a total of 20 tape stripping operations at each application site. The 20th tape strip for each sample was imaged for FITC using ultraviolet light at 340 nm. The presence of a fluorescent spot on the tape indicated penetration of FITC to the 20th tape strip.

hairless guinea pig skin [4] = test: In vitro penetration of FITC through full skin; type: in vitro ADME; details: peptide 2.5 mg/mL with FITC sodium salt 0.05 mg/mL in PBS; 3 hours at room temperature then 4° C. overnight; UV 340 nm
Protocol: An in vitro assay to test for skin penetration enhancement was conducted using hairless guinea pig skin. A full skin sample from the back region of the animal was used. The test sample was prepared containing FITC sodium salt (at a concentration of 0.05 mg/mL), the peptide SHSACLDNTFRACG (Sequence ID No: 17) at a concentration of 2.5 mg/mL, and PBS (40 microliters). The control sample was prepared containing only FITC sodium salt (at a concentration of 0.05 mg/mL), and PBS (40 microliters). Each sample was applied to a separate 0.25 cm^2 section on the stratum corneum side of the guinea pig skin using a PIPETMAN Classic pipet. The treated skin samples were covered, maintained at room temperature for 3 hours and then at 4° C. overnight. The side of the skin sample opposite the application side was visually examined under ultraviolet light (340 nm). Visualization of a fluorescent spot on the side of the skin directly opposite from the application site was used to confirm penetration of FITC through the skin. […] For the control sample a fluorescent spot was not visualized on the side of the skin directly opposite from the application site.

Row | Substance | Frequency of Sequence in Plaques from Tape Stripping of Human Cadaver Skin Study (human cadaver skin [1]) [n/57] | Frequency of Sequence in Plaques from Hairless Guinea Pig Study (Hairless guinea pigs) [n/48] | Fluorescent Spot Visualized on Tape Strip #20 (hairless guinea pig skin [3]) | also measured
1 | 1 (ACLPGVLGSC; Phage display library peptides) [compound 1] | 1 | 0 |  | 
2 | 2 (ACSLPWDASC; Phage display library peptides) [compound 2] | 1 | 0 |  | 
3 | 3 (ACDTPRLTHC; Phage display library peptides) [compound 3] | 2 | 0 |  | 
4 | 4 (TWTQAWPWGWTW; Phage display library peptides) [compound 4] | 1 | 0 |  | 
5 | 5 (AKSSWWGRAYWY; Phage display library peptides) [compound 5] | 1 | 0 |  | 
6 | 6 (ACLDNTFRAC; Phage display library peptides) [compound 6] | 2 | 11 |  | deepest penetration of the green fluorescent signal of GFP in the skin sample (tape strip number) (human cadaver skin [2]): 14
7 | 7 (ASSTTLNTLAQ; Phage display library peptides) [compound 7] | 9 | 5 |  | 
8 | 8 (ASSDIPLFTRY; Phage display library peptides) [compound 8] | 1 | 4 |  | 
9 | 10 (SHSACSLPWDASCGGGS; Phage display library peptides) [compound 10] |  |  | yes | 
10 | 12 (SHSTWTQAWPWGWTWGGGS; Phage display library peptides) [compound 12] |  |  | yes | 
11 | 13 (SHSAKSSWWGRAYWYGGGS; Phage display library peptides) [compound 13] |  |  | yes | 
12 | 14 (SHSACLDNTFRACGGGS; Phage display library peptides) [compound 14] |  |  | yes | deepest penetration of the green fluorescent signal of GFP in the skin sample (tape strip number) (human cadaver skin [2]): 20
13 | 15 (SHSASSTTLNTLAQWPA; Phage display library peptides) [compound 15] |  |  | yes | 
14 | 16 (SHSASSDIPLFTRYGGGS; Phage display library peptides) [compound 16] |  |  | yes | 
15 | 17 (SHSACLDNTFRACG; Phage display library peptides) [compound 17] |  |  |  | fluorescent spot on the side of the skin directly opposite from the application site (penetration of FITC through the skin) (hairless guinea pig skin [4]): a fluorescent spot was visualized
